Key:
Assay in all cases: Growth inhibition assay for Breast Cancer (BC) Cell lines
Format in all cases: cell-based
[1] = test system: AU565; settings: Homo sapiens; AU565, Her2+; 96 hours, Cell Titer-Glo
Procedure: (§1) Growth inhibition assay for Breast Cancer (BC) Cell lines. Compounds 1 (a TOR kinase inhibitor set forth herein having molecular formula C16H16N8O) and 2 (a TOR kinase inhibitor set forth herein having molecular formula C17H18N8O2) were dissolved in dimethyl sulfoxide (DMSO) to prepare a 10 mM stock solution. A serial titration was performed to produce a working concentration range of 1.5 µM to 10 mM. Aliquots to produce final concentrations of 1.5 nM to 10 µM were spotted via an acoustic dispenser (EDC ATS-100) into an empty 384-well plate. Compounds 1 and 2 were spotted in a 10-point serial dilution fashion (3-fold dilution) in duplicate within the plate. The DMSO concentration was kept constant for a final assay concentration of 0.1% DMSO. Plates were replicated for use with different cell lines and testing periods. After compound plate replication, all plates were sealed (Agilent ThermoLoc) and stored at -20° C. for up to 1 month. […] When ready for testing, plates were removed from the freezer, thawed, and unsealed just prior to the addition of the test cells. Prior to testing, cells were grown and expanded in culture flasks to provide sufficient amounts of starting material. Cells were then diluted to the appropriate densities and added directly to the compound-spotted 384-well plates. Cells were allowed to grow for 96 hours at 37° C./5% CO2. At the time when compound was added (t0), initial cell number was assessed via a viability assay (Cell Titer-Glo) by quantifying the level of luminescence generated by ATP present in viable cells. After 96 hours, cell viability of compound-treated cells was assessed via Cell Titer-Glo and luminescence measurement. Cell lines were assayed for growth inhibition by Compounds 1 and 2 in at least 3 independent tests. A control cell line (the lung tumor cell line, A549) was included in each of the assays. The compound response against this control cell line was monitored closely to enable comparison of the data generated through the assay period. All data were normalized and presented as a percentage of the DMSO-treated cells. Results were then expressed as a GI50 value. The GI50 value corrects for the cell count at time zero.

[2] = test system: BT-474; settings: Homo sapiens; BT-474, Her2+; 96 hours, Cell Titer-Glo
Procedure: as §1

[3] = test system: BT-483; settings: Homo sapiens; BT-483, ER+/PR+; 96 hours, Cell Titer-Glo
Procedure: as §1

[4] = test system: CAMA-1; settings: Homo sapiens; CAMA-1, ER+/PR+; 96 hours, Cell Titer-Glo
Procedure: as §1

[5] = test system: EFM-192A; settings: Her2+, 96 hours, Cell Titer-Glo
Procedure: as §1

[6] = test system: EFM-19; settings: Homo sapiens; EFM-19, ER+/PR+; 96 hours, Cell Titer-Glo
Procedure: as §1

[7] = test system: HCC1428; settings: Homo sapiens; HCC1428, ER+/PR+; 96 hours, Cell Titer-Glo
Procedure: as §1

[8] = test system: HCC1500; settings: HCC1500, ER+/PR+; 96 hours, Cell Titer-Glo
Procedure: as §1

[9] = test system: HCC1569; settings: Homo sapiens; HCC1569, Her2+; 96 hours, Cell Titer-Glo
Procedure: as §1

[10] = test system: HCC1954; settings: Homo sapiens; HCC1954, Her2+; 96 hours, Cell Titer-Glo
Procedure: as §1

[11] = test system: HCC202; settings: HCC202, Her2+; 96 hours, Cell Titer-Glo
Procedure: as §1

[12] = test system: KPL-1; settings: KPL-1, ER+/PR+; 96 hours, Cell Titer-Glo
Procedure: as §1

[13] = test system: MCF7; settings: Homo sapiens; MCF7, ER+/PR+; 96 hours, Cell Titer-Glo
Procedure: as §1

[14] = test system: MDA-MB-134-VI; settings: Homo sapiens, ER+/PR+, 96 hours, Cell Titer-Glo
Procedure: as §1

[15] = test system: MDA-MB-175-VII; settings: Homo sapiens, ER+/PR+, 96 hours, Cell Titer-Glo
Procedure: as §1

[16] = test system: MDA-MB-361; settings: Homo sapiens; MDA-MB-361, Her2+; 96 hours, Cell Titer-Glo
Procedure: as §1

[17] = test system: MDA-MB-415; settings: Homo sapiens; MDA-MB-415, ER+/PR+; 96 hours, Cell Titer-Glo
Procedure: as §1

[18] = test system: MDA-MB-453; settings: Homo sapiens; MDA-MB-453, Her2+; 96 hours, Cell Titer-Glo
Procedure: as §1

[19] = test system: SK-BR-3; settings: Homo sapiens; SK-BR-3, Her2+; 96 hours, Cell Titer-Glo
Procedure: as §1

[20] = test system: T47D; settings: Homo sapiens, ER+/PR+, 96 hours, Cell Titer-Glo
Procedure: as §1

[21] = test system: UACC-812; settings: Homo sapiens; UACC-812, Her2+; 96 hours, Cell Titer-Glo
Procedure: as §1

[22] = test system: ZR-75-1; settings: Homo sapiens; ZR-75-1, ER+/PR+; 96 hours, Cell Titer-Glo
Procedure: as §1

[23] = test system: ZR-75-30; settings: Homo sapiens; ZR-75-30, Her2+; 96 hours, Cell Titer-Glo
Procedure: as §1

Structure (SMILES): COCCN1C(=O)CNc2ncc(-c3ccc(-c4nnc[nH]4)nc3C)nc21 [Compound 2, 1-(2-methoxyethyl)-7-(2-methyl-6-(4H-1,2,4-triazol-3-yl)pyridin-3-yl)-3,4-dihydropyrazino[2,3-b]pyrazin-2(1H)-one]
- GI50 [1]: 58.2 nM
- GI50 [2]: 78.2 nM
- GI50 [3]: 17.3 nM
- GI50 [4]: 44.6 nM
- GI50 [5]: 74.1 nM
- GI50 [6]: 21.1 nM
- GI50 [7]: 96.5 nM
- GI50 [8]: 24.6 nM
- GI50 [9]: 120 nM
- GI50 [10]: 73.3 nM
- GI50 [11]: 8.9 nM
- GI50 [12]: 50.7 nM
- GI50 [13]: 83.4 nM
- GI50 [14]: 69.5 nM
- GI50 [15]: 17 nM
- GI50 [16]: 28.5 nM
- GI50 [17]: 53.4 nM
- GI50 [18]: 44.5 nM
- GI50 [19]: 66.8 nM
- GI50 [20]: 21.4 nM
- GI50 [21]: 32.1 nM
- GI50 [22]: 10.3 nM
- GI50 [23]: 18.8 nM
